Laboratory results from patent publication US20230107216A1, “PANTETHEINE DERIVATIVES AND USES THEREOF” (Comet Therapeutics, Inc., priority 2018, published 2023).

Key:
[1] = test system: tyrosine hydroxylase positive mesencephalic neurons injured by 6-OHDA; assay: Neuroprotective effect on damage induced by 6-OHDA on culture of mesencephalic neurons; type: cell-based; conditions: Rattus norvegicus, Neuron, 6-OHDA 15 μM, 48h, read-out: % reversion of TH positive neurons (6-OHDA-mediated degradation of dopaminergic neurons)
Experimental: The protective effect of compounds of the present disclosure was determined on 6-OHDA-mediated injury on mesencephalon neuronal cultures.
A female Wistar rat (Janvier; France) of 15 days gestation was terminated by cervical dislocation, the fetuses were removed from the uterus and their brains were harvested and placed in ice-cold medium (Leibovitz's L15 medium, Gibco). Only ventral mesencephalic flexure was used for the cell preparations. The midbrain was dissociated by trypsinization. The reaction was stopped, and the suspension was triturated and centrifuged. The pellet of dissociated cells was resuspended in chemically defined medium consisted of Neurobasal (Gibco, 21103049), containing B27 supplement (Gibco, A3582801) and L-glutamine (Gibco, 25030081), 10 ng/ml (BDNF; Pepro Tech, France, 450-02) and 1 ng/ml (GDNF; Pepro Tech, 450-51).
Viable primary rat embryo mesencephalic cells were counted and seeded on 96-multi-wells plate precoated with poly-L-lysine. Cells were maintained in a humidified incubator at 37° C. in 5% CO2-95% air atmosphere and medium changed on day 2. On day 6, the culture medium was removed and replaced by new media without neurotrophic factors containing the compounds of the present disclosure (50-10 μM) or vehicle (0.1% DMSO). After 1h exposure, injury of mesencephalon neuronal cultures was induced by 6-OHDA (15 μM) for further 48h. A mixture of the growth factors GDNF (1 ng/ml) and BDNF (10 ng/ml) were used as reference compound. On day 8, the tyrosine hydroxylase positive neurons were evaluated. Cultures were fixed 30 min at 4° C. with paraformaldehyde in PBS (4%, Sigma). After, cells were permeabilized with 0.1% Triton X100 for 30 min, saturated with PBS containing 3% of BSA (bovine serum albumin) and incubated 2h with anti-tyrosine hydroxylase antibody (Sigma, 1:10000; clone TH-2) at 1/10000 in PBS containing 0.5% of BSA. Cells were washed three times with PBS containing 0.5% of BSA and incubated 1h with goat anti mouse antibody coupled with AF488 (Invitrogen A11001) diluted at 1/1000 in PBS containing 0.5% of BSA. Finally, nuclei were stained with DAPI (Thermo fisher, D1306) at 1/1000 in PBS containing 0.5% of BSA. After rinsing with PBS, the plate was visualized and examined with Cell Insight HCS (Thermo Scientific) to determine the number of tyrosine hydroxylase positive cells per well.
The results for each well were expressed as a percentage by setting the density of tyrosine hydroxylase positive cells under control conditions to 100%. Then the result for each condition was reported as mean±SEM from 4 independent cultures.
A global analysis of the data was performed using a one-way analysis of variance (ANOVA), followed by Fisher's Protected Least Significant Difference when applicable. The level of significance was set to p<0.05.

[2] = test system: Bronchial epithelial cells (BE3C system); assay: BioMAP BE3C system (IL-1β, TNFα, IFNγ); type: cell-based, human; conditions: procedure of Example 831
[3] = test system: primary fibroblasts GM00649, GM06225, GM00612, GM00444, GM03672; assay: MMP, ROS and ATP multiplex (ArrayScan); type: cell-based; conditions: Homo sapiens, Fibroblast, procedure Example 838, read-out: Decreased ROS by at least 10%; for inhibition at 50 µM: Leigh GM03672, 50 μM (table line r25)
Experimental: Cell culture and treatments. Primary adherent fibroblasts were cultured in minimum essential medium (MEM) (Gibco, 25030081) supplemented with 2 mM L-Glutamine (Gibco, 25030081), 15% fetal bovine serum (FBS) (Gibco, 26400044) and 1% penicillin/streptomycin (Gibco, 5140122) at 37° C. and 5% CO2. Cells were collected for either passaging or experiment at ˜70-80% confluence. Cells were obtained by trypsinization and seeded at 10000 cells/well in cell culture microplates (Seahorse Bioscience, 101085-004) and allowed to adhere for 16 hours in culture media. After media was refreshed with DMEM (Agilent Seahorse 103575-100) supplemented with 1 mM glucose and 10% FBS (Gibco, 26400044). At the end of the incubation period, the cells were loaded with the relevant dye/antibody for each cell health marker. The assay provided simultaneous measurement of cell health parameters including cell count, ROS formation (DHE), mitochondrial membrane potential (MitoTracker®) and cellular ATP content (CellTiter-Glo®, Promega). The plates were then scanned using an automated fluorescent cellular imager, ArrayScan® (Thermo Scientific Cellomics). Assay conditions were optimized by one skilled in the art.
Primary cells used in this example were obtained from Coriell Institute for Medical Research and consisted of GM00649, MSUD (Maple Syrup Urine Disease) Tyle IA; GM06225, Kearns-Sayre Syndrome; GM00612, MSUD (Maple Syrup Urine Disease) Tyle II GM00444, Pyruvate Carboxylase Deficiency and GM03672, Leigh Syndrome.

[4] = Homo sapiens, Epithelial cell, 24 h, 10 uM, read-out: % decrease in MMP-1

SMILES: CC(=O)SCCNC(=O)CCNC(=O)[C@H](O)C(C)(C)COC(=O)[C@@H](N)Cc1ccc(O)c(O)c1 [Compound 498, (3R)-3-[(2-[[2-(acetylsulfanyl)ethyl]carbamoyl]ethyl)carbamoyl]-3-hydroxy-2,2-dimethylpropyl (2S)-2-amino-3-(3,4-dihydroxyphenyl)propanoate]
- inhibition at 50 µM [1]: ≥ 30%
- % increase in MMP-1 ([2]; 1 uM): ≥10%
- % decrease in tPA ([2]; 10 uM): ≥10%

SMILES: CC(C)(CO)[C@@H](O)C(=O)NCCC(=O)NCCSC(=O)CC(=O)CCC(=O)O [Compound 2, 6-[(2-[3-[(2R)-2,4-dihydroxy-3,3-dimethylbutanamido]propanamido]ethyl)sulfanyl]-4,6-dioxohexanoic acid]
- inhibition at 50 µM [3]: ≥ 10%
- inhibition at 5 µM ([3]; PC GM00444, 5 μM): ≥ 10%

SMILES: CC(=O)OCC(C)(C)[C@@H](O)C(=O)NCCC(=O)NCCSC(=O)CC(=O)CCC(=O)O [Compound 140, 6-[(2-[3-[(2R)-4-(acetyloxy)-2-hydroxy-3,3-dimethylbutanamido]propanamido]ethyl)sulfanyl]-4,6-dioxohexanoic acid]
- inhibition at 50 µM [1]: ≥ 30%
- inhibition at 50 µM [3]: ≥ 10%

SMILES: COC(=O)CC(C(C)=O)C(=O)SCCNC(=O)CCNC(=O)[C@H](O)C(C)(C)CO (some centres unmarked) [Compound 410]
- inhibition at 50 µM [3]: ≥ 10%

SMILES: CC(=O)SCCNC(=O)CCNC(=O)[C@H](O)C(C)(C)COC(=O)CN [Compound 560, (3R)-3-[(2-[[2-(acetylsulfanyl)ethyl]carbamoyl]ethyl)carbamoyl]-3-hydroxy-2,2-dimethylpropyl 2-aminoacetate]
- inhibition at 10 µM [1]: ≥ 30%

SMILES: C[C@H](O)CC(=O)CC(=O)SCCNC(=O)CCNC(=O)[C@H](O)C(C)(C)CO [Compound 1306, (2R)-2,4-dihydroxy-N-[2-[(2-[[(5S)-5-hydroxy-3-oxohexanoyl]sulfanyl]ethyl)carbamoyl]ethyl]-3,3-dimethylbutanamide]
- inhibition at 50 µM [3]: ≥ 10%

SMILES: COC(=O)CCC(=O)SCCNC(=O)CCNC(=O)[C@H](OC(=O)CN)C(C)(C)CO [Compound 1294, methyl 4-[(2-[3-[(2R)-2-[(2-aminoacetyl)oxy]-4-hydroxy-3,3-dimethylbutanamido]propanamido]ethyl)sulfanyl]-4-oxobutanoate]
- inhibition at 1 µM ([2]; Homo sapiens, Epithelial cell, 24 h, 1 uM, read-out: % decrease in MMP-1): ≥ 10%

SMILES: C[C@@H](O)CC(=O)CC(=O)SCCNC(=O)CCNC(=O)[C@H](O)C(C)(C)CO [Compound 42, (2R)-2,4-dihydroxy-N-[2-[(2-[[(5R)-5-hydroxy-3-oxohexanoyl]sulfanyl]ethyl)carbamoyl]ethyl]-3,3-dimethylbutanamide]
- inhibition at 50 µM [1]: ≥ 30%
- % decrease in Keratin 8/18 ([2]; 10 uM): ≥1.0%
- % decrease in MMP-9 ([2]; 10 uM): ≥10%
- % decrease in tPA ([2]; 10 uM): ≥10%

SMILES: CC(C)(CO)[C@@H](O)C(=O)NCCC(=O)NCCSC(=O)CCCN [Compound 370, (2R)—N-[2-([2-[(4-aminobutanoyl)sulfanyl]ethyl]carbamoyl)ethyl]-2,4-dihydroxy-3,3-dimethylbutanamide]
- inhibition at 50 µM [1]: ≥ 30%

SMILES: C[C@@H](O)CC(=O)SCCNC(=O)CCNC(=O)[C@H](O)C(C)(C)CO [Compound 38, S-2-{3-[(R)-2,4-dihydroxy-3,3-dimethylbutyrylamino]propionylamino} ethyl (R)-3-hydroxybutanethioate]
- inhibition at 10 µM [1]: ≥ 30%

SMILES: CC(=O)SCCNC(=O)CCNC(=O)[C@H](O)C(C)(C)COC(=O)[C@H](C)N [Compound 502, (3R)-3-[(2-[[2-(acetylsulfanyl)ethyl]carbamoyl]ethyl)carbamoyl]-3-hydroxy-2,2-dimethylpropyl (2S)-2-aminopropanoate]
- % decrease in IL-1α ([2]; 1 uM): ≥10%

SMILES: COC(=O)CC(SCCNC(=O)CCNC(=O)[C@H](O)C(C)(C)COC(C)=O)C(=O)OC (stereo partly drawn) [Compound 149, 1,4-dimethyl 2-[(2-[3-[(2R)-4-(acetyloxy)-2-hydroxy-3,3-dimethylbutanamido]propanamido]ethyl)sulfanyl]butanedioate]
- % decrease in tPA ([2]; 10 uM): ≥10%

SMILES: CC(C)(CO)[C@@H](O)C(=O)NCCC(=O)NCCSC(=O)CCC(=O)O [Compound 1, (R)-4-((2-(3-(2,4-dihydroxy-3,3-dimethylbutanamido)propanamido)ethyl)thio)-4-oxobutanoic acid]
- inhibition at 10 µM [1]: ≥ 10%

SMILES: COC(=O)CCC(=O)SCCNC(=O)CCNC(=O)[C@H](O)C(C)(C)COC(C)=O [Compound 138]
- % increase in MMP-9 ([2]; 1 uM): ≥10%

SMILES: CCC(=O)CC(=O)SCCNC(=O)CCNC(=O)[C@H](O)C(C)(C)CO [Compound 382, (2R)-2,4-dihydroxy-3,3-dimethyl-N-[2-([2-[(3-oxopentanoyl)sulfanyl]ethyl]carbamoyl)ethyl]butanamide]
- inhibition at 50 µM [3]: ≥ 10%

SMILES: COC(=O)CCC(=O)SCCNC(=O)CCNC(=O)[C@H](OC(=O)CNC(C)=O)C(C)(C)CO [Compound 1298, methyl 4-[(2-[3-[(2R)-2-[(2-acetamidoacetyl)oxy]-4-hydroxy-3,3-dimethylbutanamido]propanamido]ethyl)sulfanyl]-4-oxobutanoate]
- inhibition at 10 µM [2, 4]: ≥ 10%

SMILES: CC(=O)OCC(C)(C)[C@@H](OC(C)=O)C(=O)NCCC(=O)NCCSC(C)=O [Compound 1264, (1R)-3-(acetyloxy)-1-[(2-[[2-(acetylsulfanyl)ethyl]carbamoyl]ethyl)carbamoyl]-2,2-dimethylpropyl acetate]
- % decrease in tPA ([2]; 10 uM): ≥10%
- inhibition at 10 µM [2, 4]: ≥ 10%

SMILES: CC(C)(CO)[C@@H](O)C(=O)NCCC(=O)NCCSC(=O)[C@@H](N)Cc1ccc(O)c(O)c1 [Compound 371, (2R)—N-[2-[(2-[[(2S)-2-amino-3-(3,4-dihydroxyphenyl)propanoyl]sulfanyl]ethyl)carbamoyl]ethyl]-2,4-dihydroxy-3,3-dimethylbutanamide]
- inhibition at 50 µM [1]: ≥ 30%

SMILES: CCCCCCC(=O)SCCNC(=O)CCNC(=O)[C@H](O)C(C)(C)CO [Compound 372, (2R)—N-(2-[[2-(heptanoylsulfanyl)ethyl]carbamoyl]ethyl)-2,4-dihydroxy-3,3-dimethylbutanamide]
- inhibition at 10 µM [2, 4]: ≥ 10%

SMILES: CC(C)(COC(=O)OCC[N+](C)(C)C)[C@@H](O)C(=O)NCCC(=O)NCCSC(=O)CCC(=O)O [Compound 116, [2-([[(3R)-3-[[2-([2-[(3-carboxypropanoyl)sulfanyl]ethyl]carbamoyl)ethyl]carbamoyl]-3-hydroxy-2,2-dimethylpropoxy]carbonyl]oxy)ethyl]trimethylazanium]
- inhibition at 10 µM [1]: ≥ 30%

SMILES: CC(C)(CO)[C@@H](O)C(=O)NCCC(=O)NCCSC(=O)CCCO [Compound 1304, (2R)-2,4-dihydroxy-N-[2-([2-[(4-hydroxybutanoyl)sulfanyl]ethyl]carbamoyl)ethyl]-3,3-dimethylbutanamide]
- inhibition at 50 µM [3]: ≥ 10%
